Source: patent US9550752B2, “Triazolinthione derivatives” (priority 2013, dated 2017)
Read-outs that look alike come from different tables or passages of the source. Marks after values point to notes of the source that are not given here.

[1] = method [a]: pH 2.7, 0.1% formic acid in water/acetonitrile, Table 1, formula (I)
[2] = method [a]: pH 2.7, Table 3, formula (V)
[3] = method [b]: pH 7.8, Table 3, formula (V)
[4] = method [a]: pH 2.7, Table 4, formula (XII)

SMILES | LogP (pH 2.7) | further results
CC(CF)(CF)C(O)(Cc1ccnc(Cl)c1)Cn1cncn1 (racemic) [XXI-41] | 1.66^[a] | 
OC(Cc1cccc(Cl)c1)(Cc1ccnc(Cl)c1)Cn1cncn1 (racemic) [XXI-42] | 2.42^[a] | 
OC(Cc1ccnc(Cl)c1)(Cn1cncn1)c1ccc(Cl)nc1 (racemic) [XXI-43] | 1.38^[a] | 
OC(Cc1ccnc(Cl)c1)(Cn1cncn1)C1(Cl)CC1 (racemic) [XXI-44] | 1.76^[a] | 
OC(Cc1cc(Cl)ncc1F)(Cn1cncn1)C1(Cl)CC1 (racemic) [XXI-45] | 2.06^[a] | 
OC(Cc1cc(Cl)ncc1F)(Cn1cncn1)C1(F)CC1 (racemic) [XXI-46] | 1.66^[a] | 
OC(Cc1cc(Cl)ncc1F)(Cn1cncn1)c1ccc(Cl)nc1 (racemic) [XXI-47] | 1.60^[a] | 
OC(Cc1cc(Cl)ncc1F)(Cn1cncn1)c1cccnc1Cl (racemic) [XXI-48] | 1.57^[a] | 
CC(CF)(CF)C(O)(Cc1cc(Cl)ncc1F)Cn1cncn1 (racemic) [XXI-49] | 1.89^[a] | 
OC(Cc1ccnnc1Cl)(Cn1cncn1)C1(Cl)CC1 (racemic) [XXI-50] | 1.31^[a] | 
OC(Cc1cc(Cl)nnc1Cl)(Cn1cncn1)C1(Cl)CC1 (racemic) [XXI-51] | 1.92^[a] | 
OC(Cc1cc(Cl)ccn1)(Cn1cncn1)C1(Cl)CC1 (racemic) [XXI-52] | 2.02^[a] | 
Cc1cccc(CC(O)(Cn2cncn2)C2(Cl)CC2)n1 (racemic) [XXI-53] | 0.52^[a] | 
CC1(C(O)(Cc2ccncc2Cl)Cn2cncn2)CC1 (racemic) [XXI-54] | 1.57^[a] | 
OC(Cc1ccncn1)(Cn1cncn1)C1(Cl)CC1 (racemic) [XXI-55] | 1.10^[a] | 
OC(Cc1cccnc1F)(Cn1cncn1)C1(Cl)CC1 (racemic) [XXI-56] | 1.64^[a] | 
Cc1ccnc(CC(O)(Cn2cncn2)C2(Cl)CC2)c1 (racemic) [XXI-57] | 0.52^[a] | 
OC(Cc1ccc(Cl)nc1Cl)(Cn1cncn1)C1(Cl)CC1 (racemic) [XXI-58] | 2.55^[a] | 
OC(Cc1nccnc1I)(Cn1cncn1)C1(Cl)CC1 (racemic) [XXI-59] | 2.07^[a] | 
OC(Cc1cc(Oc2ccc(Cl)cc2)nnc1Cl)(Cn1cncn1)C1(Cl)CC1 (racemic) [XXI-60] | 3.08^[a] | 
OC(Cc1cncc(Oc2ccc(Cl)cc2)n1)(Cn1cncn1)C1(Cl)CC1 (racemic) [XXI-61] | 2.88^[a] | 
OC(Cc1ncnc(Cl)c1Cl)(Cn1cncn1)C1(Cl)CC1 (racemic) [XXI-62] | 2.28^[a] | 
OC(Cc1cc(Cl)ncc1Cl)(Cn1cncn1)C1(Cl)CC1 (racemic) [XXI-63] | 2.53^[a] | 

SMILES | LogP (pH 2.7) | further results
OC(Cc1ccnc(Cl)c1F)(Cn1cncn1)c1cccnc1Cl (racemic) [XXI-64] | 1.54^[a] | 
OC(Cc1ccnc(Cl)c1F)(Cn1cncn1)C1(Cl)CC1 (racemic) [XXI-65] | 2.02^[a] | 
CC(CF)(CF)C(O)(Cc1ccnc(Cl)c1F)Cn1cncn1 (racemic) [XXI-66] | 1.87^[a] | 
OC(Cc1nc(Cl)ccc1Cl)(Cn1cncn1)C1(Cl)CC1 (racemic) [XXI-101] | 2.73^[a] | 
OC(Cc1ncc(Cl)cc1Cl)(Cn1cncn1)C1(Cl)CC1 (racemic) [XXI-102] | 2.88^[a] | 
CC(C)(C)C(O)(Cc1ccncc1F)Cn1cncn1 (racemic) [XXI-103] | 1.41^[a] | 
CCC(C)(C)C(O)(Cc1ccncc1F)Cn1cncn1 (racemic) [XXI-104] | 1.73^[a] | 
CC(C)(C)C(O)(Cc1ccc2ccccc2n1)Cn1cncn1 (racemic) [XXI-105] | 1.51^[a] | 
CC(C)(C)C(O)(Cc1cc(Cl)nc(Cl)c1)Cn1cncn1 (racemic) [XXI-106] | 2.64^[a] | 
CC(C)(C)C(O)(Cc1ccnc2ccccc12)Cn1cncn1 (racemic) [XXI-107] | 1.17^[a] | 
CC(C)(C)C(O)(Cc1cc(Cl)cc(Cl)n1)Cn1cncn1 (racemic) [XXI-108] | 2.86^[a] | 
CC(C)(C)C(O)(Cc1ccc(Cl)c(Cl)n1)Cn1cncn1 (racemic) [XXI-109] | 2.78^[a] | 
CC(C)(C)C(O)(Cc1cccc(Cl)n1)Cn1cncn1 (racemic) [XXI-110] | 2.30^[a] | 
CCC(C)(C)C(O)(Cc1ccnc(Cl)c1)Cn1cncn1 (racemic) [XXI-111] | 2.27^[a] | 
CC(C)(C)C(O)(Cc1ccnc(Cl)c1)Cn1cncn1 (racemic) [XXI-112] | 1.93^[a] | 
CC(C)(C)C(O)(Cc1cc(Cl)ncc1F)Cn1cncn1 (racemic) [XXI-113] | 2.16^[a] | 
CC(C)(C)C(O)(Cc1nccnc1Cl)Cn1cncn1 (racemic) [XXI-115] | 2.01^[a] | 
Cc1ncc(CC(O)(Cn2cncn2)C(C)(C)C)nc1Cl (racemic) [XXI-116] | 2.10^[a] | 
CC(C)(C)C(O)(Cc1cnccn1)Cn1cncn1 (racemic) [XXI-118] | 1.39^[a] | 
CC(C)(C)C(O)(Cc1cc(Cl)ccn1)Cn1cncn1 (racemic) [XXI-119] | 1.87^[a] | 
Cc1cccc(CC(O)(Cn2cncn2)C(C)(C)C)n1 (racemic) [XXI-120] | 0.63^[a] | 
CCOC(=O)OC(Cc1cccnc1Cl)(Cn1cncn1)C(C)(C)C (racemic) [XXI-121] | 2.67^[a] | LogP (pH 7.8): 2.56^[b];
COC(C)(C)C(O)(Cc1ccncc1Cl)Cn1cncn1 (racemic) [XXI-123] | 1.48^[a] | 

SMILES | LogP (pH 2.7) | further results
CC(C)(C)C(O)(Cc1ccnc(Cl)c1F)Cn1cncn1 (racemic) [XXI-124] | 2.16^[a] | 
CC(C)(C)C(O)(Cc1c(Cl)cncc1Cl)Cn1cncn1 (racemic) [XXI-125] | 2.34^[a] | 
CC(C)(C)C(O)(Cc1cc(F)ncc1Cl)Cn1cncn1 (racemic) [XXI-126] | 2.39^[a] | 
OC(Cc1ccncc1Cl)(CC1CC1)Cn1cncn1 (racemic) [XXI-127] | 1.43^[a] | 
CC(C)CCC(O)(Cc1ccncc1Cl)Cn1cncn1 (racemic) [XXI-128] | 2.00^[a] | 
CCOC(C)(C)C(O)(Cc1ccncc1Cl)Cn1cncn1 (racemic) [XXI-129] | 1.90^[a] | LogP (pH 7.8): 2.04^[b];
CC(C)(C)C(O)(Cc1nc(Cl)ccc1Cl)Cn1cncn1 (racemic) [XXI-130] | 2.82^[a] | 
CC(C)(C)C(O)(Cc1cccnc1Cl)Cn1ncnc1S (centres unmarked) [Example I-1] | 2.31^[a] | 
CC(C)(C)C(O)(Cc1ccncc1Cl)Cn1ncnc1S (centres unmarked) [Example I-2] | 2.14^[a] | 
OC(Cc1cccnc1Cl)(Cn1ncnc1S)C1(Cl)CC1 (centres unmarked) [Example I-4] | 2.15^[a] | 
CC(C)(C)C(O)(Cc1cnc2ccccc2c1)Cn1ncnc1S (centres unmarked) [Example I-5] | 1.58^[a] | 
CCCCc1nc2ccccc2cc1CC(O)(Cn1ncnc1S)C(C)(C)C (centres unmarked) [Example I-6] | 1.88^[a] | 
OC(Cc1ccc2ccccc2n1)(Cn1ncnc1S)C1(Cl)CC1 (centres unmarked) [Example I-7] |  | LogP [1]: 1.60^[a]
OC(Cc1cc(Cl)nc(Cl)c1)(Cn1ncnc1S)C1(Cl)CC1 (centres unmarked) [Example I-8] |  | LogP [1]: 3.10^[a]
CC(C)(C)C(O)(Cc1ccnc2ccccc12)Cn1ncnc1S (centres unmarked) [Example I-9] | 1.59^[a] | 
CC(C)(C)C(O)(Cc1cc(Cl)cc(Cl)n1)Cn1ncnc1S (centres unmarked) [Example I-10] | 3.07^[a] | 
OC(Cc1ccnc2ccccc12)(Cn1ncnc1S)C1(Cl)CC1 (centres unmarked) [Example I-12] | 1.37^[a] | 
CC(C)(C)C(O)(Cc1ccc(Cl)c(Cl)n1)Cn1ncnc1S (centres unmarked) [Example I-14] | 3.00^[a] | 
CC1(C(O)(Cc2cccnc2Cl)Cn2ncnc2S)CC1 (centres unmarked) [Example I-15] | 2.14^[a] | 
CC1(C(O)(Cc2ccncc2Cl)Cn2ncnc2S)CC1 (centres unmarked) [Example I-16] | 1.96^[a] | 
CC(C)(C)C(O)(Cc1ccncc1F)Cn1ncnc1S (centres unmarked) [Example I-18] | 1.79^[a] | 
OC(Cc1ccncc1F)(Cn1ncnc1S)C1(Cl)CC1 (centres unmarked) [Example I-19] | 1.65^[a] | 
CCC(C)(C)C(O)(Cc1ccncc1Cl)Cn1ncnc1S (centres unmarked) [Example I-20] | 2.50^[a] | 

SMILES | LogP (pH 2.7) | further results
OC(Cc1ccncc1F)(Cn1ncnc1S)C1(F)CC1 (centres unmarked) [Example I-21] | 1.29^[a] | 
CC(CF)(CF)C(O)(Cc1ccncc1F)Cn1ncnc1S (centres unmarked) [Example I-22] | 1.58^[a] | 
O=C(Cc1ccc(Cl)nc1)C1(Cl)CC1 [Example V-6] |  | LogP [2]: 2.34; LogP [3]: 2.30
CC(C)(C)C(=O)Cc1ncc(Cl)cc1Cl [Example V-13] |  | LogP [2]: 3.33^[a]
CC(C)(C)C(=O)Cc1cnc2ccccc2c1 [Example V-14] |  | LogP [2]: 1.60^[a]
CC(C)(C)C(=O)Cc1ccc(Cl)nc1 [Example V-15] |  | LogP [2]: 2.47^[a]
CC(C)(C)C(=O)Cc1cccnc1Cl [Example V-16] |  | LogP [2]: 2.34^[a]
CCC(C)(CC)C(=O)Cc1ccncc1Cl [Example V-17] |  | LogP [2]: 3.04^[a]
CC(C)C(C)(C)C(=O)Cc1ccncc1Cl [Example V-18] |  | LogP [2]: 3.00^[a]
CC(C)(C)C(=O)Cc1cccnc1 [Example V-19] |  | LogP [2]: 0.41; LogP [3]: 1.71
CC(C)(C)C(=O)Cc1ccncc1 [Example V-20] |  | LogP [2]: 0.35; LogP [3]: 1.75
O=C(Cc1cccnc1Cl)C(CF)(CF)CF [Example V-25] |  | LogP [2]: 1.98^[a]
CC(C)(C)C1(Cc2ncc(Cl)cc2Cl)CO1 (centres unmarked) [XII-6] |  | LogP [4]: 4.06^[a]
CC(C)(C)C1(Cc2cnc3ccccc3c2)CO1 (centres unmarked) [XII-7] |  | LogP [4]: 1.86^[a]
CC(C)(C)C1(Cc2cccnc2Cl)CO1 (centres unmarked) [XII-9] |  | LogP [4]: 2.97; LogP (method [b]: pH 7.8, Table 4, formula (XII)): 2.96
CC(C)(C)C1(Cc2ccncc2Cl)CO1 (centres unmarked) [XII-10] |  | LogP [4]: 2.80^[a]
CC(C)(C)C1(Cc2ccncc2F)CO1 (centres unmarked) [XII-12] |  | LogP [4]: 2.31^[a]
CCC(C)(C)C1(Cc2ccncc2F)CO1 (centres unmarked) [XII-15] |  | LogP [4]: 2.76^[a]
CC(C)C(C)(C)C1(Cc2ccncc2F)CO1 (centres unmarked) [XII-17] |  | LogP [4]: 3.19^[a]
CCC(C)(C)C1(Cc2ccnc(Cl)c2)CO1 (centres unmarked) [XII-18] |  | LogP [4]: 3.51^[a]
CC(C)C(C)(C)C1(Cc2ccnc(Cl)c2)CO1 (centres unmarked) [XII-21] |  | LogP [4]: 3.94^[a]
CC(C)(C)C1(Cc2ccnc(Cl)c2)CO1 (centres unmarked) [XII-22] |  | LogP [4]: 3.06^[a]
CC(C)C(C)(C)C1(Cc2cc(Cl)ncc2F)CO1 (centres unmarked) [XII-24] |  | LogP [4]: 4.34^[a]
